Legend:
Assay type in all cases: in vivo
[1] = system: large crabgrass (Digitaria sanguinalis); experiment: Test A pre-/postemergence plant response
Method in brief: (§1)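 Formulated test chemicals (non-phytotoxic solvent, surfactant) were sprayed onto soil right after planting and simultaneously onto young plants at one to two leaves, 2 to 10 cm tall. Plants stayed in the greenhouse about ten days; injury was then visually scored against untreated controls, from 0 (no effect) to 100 (complete control).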

[2] = system: morningglory (Ipomoea spp.); experiment: Test A pre-/postemergence plant response
Method in brief: as §1

[3] = system: velvetleaf (Abutilon theophrasti); experiment: Test A pre-/postemergence plant response
Method in brief: as §1

[4] = system: wheat (Triticum aestivum); experiment: Test A pre-/postemergence plant response
Method in brief: as §1

[5] = system: cocklebur (Xanthium strumarium); experiment: Test B pre-/postemergence plant response; settings: for Cocklebur plant response rating (0 to 100 scale): 62 g ai/ha, 0 is no effect, 13 to 15 days
Method in brief: (§2)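 Seeds sown in loam–sand blend were treated preemergence, and plants at 2–18 cm (1- to 4-leaf stage) in peat-based medium were treated postemergence; compounds were formulated in non-phytotoxic solvent with surfactant. After 13–15 days in greenhouse, response was visually rated against controls, 0 (no effect) to 100 (complete control).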

[6] = system: downy bromegrass (Bromus tectorum); experiment: Test B pre-/postemergence plant response; settings: for Bromegrass, Downy plant response rating (0 to 100 scale): 62 g ai/ha, 0 is no effect, 13 to 15 days
Method in brief: as §2

[7] = system: giant foxtail (Setaria faberii); experiment: Test B pre-/postemergence plant response; settings: for Foxtail, Giant plant response rating (0 to 100 scale): 62 g ai/ha, 0 is no effect, 13 to 15 days
Method in brief: as §2

[8] = system: goosegrass (Eleusine indica); experiment: Test B pre-/postemergence plant response; settings: for Goosegrass plant response rating (0 to 100 scale): 62 g ai/ha, 0 is no effect, 13 to 15 days
Method in brief: as §2

[9] = system: green foxtail (Setaria viridis); experiment: Test B pre-/postemergence plant response; settings: for Foxtail, Green plant response rating (0 to 100 scale): 62 g ai/ha, 0 is no effect, 13 to 15 days
Method in brief: as §2

[10] = system: kochia (Kochia scoparia); experiment: Test B pre-/postemergence plant response; settings: for Kochia plant response rating (0 to 100 scale): 62 g ai/ha, 0 is no effect, 13 to 15 days
Method in brief: as §2

[11] = system: morningglory (Ipomoea coccinea); experiment: Test B pre-/postemergence plant response; settings: for Morningglory plant response rating (0 to 100 scale): 62 g ai/ha, 0 is no effect, 13 to 15 days
Method in brief: as §2

[12] = system: pigweed (Amaranthus retroflexus); experiment: Test B pre-/postemergence plant response; settings: for Pigweed plant response rating (0 to 100 scale): 62 g ai/ha, 0 is no effect, 13 to 15 days
Method in brief: as §2

[13] = system: wheat (Triticum aestivum); experiment: Test B pre-/postemergence plant response; settings: for Wheat plant response rating (0 to 100 scale): 62 g ai/ha, postemergence, 0 is no effect, 100 is complete control, 13 to 15 days; for Plant response rating, Wheat: Postemergence, 125 g ai/ha, scale 0 to 100 (0 no effect, 100 complete control)
Method in brief: as §2

[14] = Postemergence, 125 g ai/ha, 0 to 100 scale where 0 is no effect and 100 is complete control
[15] = Postemergence, 500 g ai/ha, 0 to 100 scale, 0 = no effect, 100 = complete control, approx. ten days
[16] = Preemergence, 125 g ai/ha, 0 to 100 scale, 0 = no effect, 100 = complete control
[17] = Preemergence, 500 g ai/ha, visual injury, 0 to 100 scale (0 no effect, 100 complete control), approx. ten days
[18] = 31 g ai/ha, postemergence, scale 0 to 100, 0 is no effect, 100 is complete control
[19] = postemergence, 100 is complete control
[20] = Postemergence, 125 g ai/ha, scale 0 to 100 (0 no effect, 100 complete control)
[21] = Postemergence, 250 g ai/ha, scale 0 to 100 (0 no effect, 100 complete control)

Which “Plant response rating, Crabgrass, Large” value [1, 14] does the source give for `CCCn1c(-c2cccc(OC)c2)ncc(C(=O)C2=C(O)CCCC2=O)c1=O` [Compound 100] here?
Its value is 80.

And the “Plant response rating, Crabgrass, Large” value [1, 15]?
The value was 90.

And the “Plant response rating, Crabgrass, Large” value [1, 16]?
Its value is 80.

And the “Plant response rating, Crabgrass, Large” value [1, 17]?
Its value is 90.

And the “Plant response rating, Morningglory” value [2, 14]?
The value was 90.

And the “Plant response rating, Morningglory” value [2, 15]?
The value was 100.

What about the “Plant response rating, Morningglory” value [2, 16] of the same molecule?
Its value is 70.

And the “Plant response rating, Morningglory” value [2, 17]?
Its value is 80.

What about the “Plant response rating, Velvetleaf” value [3, 14] of the same molecule?
Its value is 100.

And the “Plant response rating, Velvetleaf” value [3, 15]?
The value was 100.

And the “Plant response rating, Velvetleaf” value [3, 16]?
Its value is 60.

And the “Plant response rating, Velvetleaf” value [3, 17]?
Its value is 80.

What about the “Plant response rating, Wheat” value [4, 14] of the same molecule?
The value was 0.

And the “Plant response rating, Wheat” value [4, 15]?
The value was 30.

What about the “Plant response rating, Wheat” value [4, 16] of the same molecule?
The value was 0.

And the “Plant response rating, Wheat” value [4, 17]?
Its value is 0.

And the “Plant response rating, Cocklebur” value [5, 18]?
The value was 40.

What about the “Cocklebur plant response rating (0 to 100 scale)” value [5, 19] of the same molecule?
Its value is 85.

And the “Plant response rating, Cocklebur” value [5, 20]?
The value was 95.

And the “Plant response rating, Cocklebur” value [5, 21]?
Its value is 98.

What about the “Plant response rating, Bromegrass, Downy” value [6, 18] of the same molecule?
Its value is 5.

And the “Bromegrass, Downy plant response rating (0 to 100 scale)” value [6, 19]?
Its value is 10.

And the “Plant response rating, Bromegrass, Downy” value [6, 20]?
Its value is 15.

And the “Plant response rating, Bromegrass, Downy” value [6, 21]?
Its value is 35.

And the “Plant response rating, Foxtail, Giant” value [7, 18]?
The value was 70.

And the “Foxtail, Giant plant response rating (0 to 100 scale)” value [7, 19]?
Its value is 75.

And the “Plant response rating, Foxtail, Giant” value [7, 20]?
Its value is 80.

And the “Plant response rating, Foxtail, Giant” value [7, 21]?
The value was 85.

And the “Plant response rating, Goosegrass” value [8, 18]?
The value was 70.

And the “Goosegrass plant response rating (0 to 100 scale)” value [8, 19]?
The value was 70.

What about the “Plant response rating, Goosegrass” value [8, 20] of the same molecule?
Its value is 75.

And the “Plant response rating, Goosegrass” value [8, 21]?
The value was 75.

What about the “Plant response rating, Foxtail, Green” value [9, 18] of the same molecule?
The value was 20.

What about the “Foxtail, Green plant response rating (0 to 100 scale)” value [9, 19] of the same molecule?
The value was 70.

What about the “Plant response rating, Foxtail, Green” value [9, 20] of the same molecule?
Its value is 80.

What about the “Plant response rating, Foxtail, Green” value [9, 21] of the same molecule?
Its value is 85.

What about the “Kochia plant response rating (0 to 100 scale)” value [10, 19] of the same molecule?
The value was 95.

What about the “Plant response rating, Kochia” value [10, 20] of the same molecule?
The value was 98.

And the “Plant response rating, Kochia” value [10, 21]?
Its value is 100.

What about the “Plant response rating, Morningglory” value [11, 18] of the same molecule?
Its value is 60.

And the “Morningglory plant response rating (0 to 100 scale)” value [11, 19]?
Its value is 100.

And the “Plant response rating, Morningglory” value [11, 20]?
The value was 100.

And the “Plant response rating, Morningglory” value [11, 21]?
The value was 100.

What about the “Plant response rating, Pigweed” value [12, 18] of the same molecule?
The value was 90.

And the “Pigweed plant response rating (0 to 100 scale)” value [12, 19]?
The value was 98.

What about the “Plant response rating, Pigweed” value [12, 20] of the same molecule?
Its value is 98.

What about the “Plant response rating, Pigweed” value [12, 21] of the same molecule?
The value was 98.

What about the “Wheat plant response rating (0 to 100 scale)” value [13] of the same molecule?
The value was 5.

And the “Plant response rating, Wheat” value [13]?
The value was 15.

Which “Plant response rating, Crabgrass, Large” value [1, 14] does the source give for `COCCn1c(-c2cccs2)ncc(C(=O)C2=C(O)CCCC2=O)c1=O` [Compound 108] here?
The value was 90.

What about the “Plant response rating, Crabgrass, Large” value [1, 15] of the same molecule?
Its value is 90.

And the “Plant response rating, Crabgrass, Large” value [1, 16]?
Its value is 70.

And the “Plant response rating, Crabgrass, Large” value [1, 17]?
Its value is 90.

What about the “Plant response rating, Morningglory” value [2, 14] of the same molecule?
The value was 100.

What about the “Plant response rating, Morningglory” value [2, 15] of the same molecule?
Its value is 100.

And the “Plant response rating, Morningglory” value [2, 16]?
The value was 80.

And the “Plant response rating, Morningglory” value [2, 17]?
The value was 90.

What about the “Plant response rating, Velvetleaf” value [3, 14] of the same molecule?
The value was 100.

What about the “Plant response rating, Velvetleaf” value [3, 15] of the same molecule?
Its value is 100.

What about the “Plant response rating, Velvetleaf” value [3, 16] of the same molecule?
The value was 80.

What about the “Plant response rating, Velvetleaf” value [3, 17] of the same molecule?
Its value is 90.

And the “Plant response rating, Wheat” value [4, 14]?
Its value is 0.

And the “Plant response rating, Wheat” value [4, 15]?
The value was 0.

What about the “Plant response rating, Wheat” value [4, 16] of the same molecule?
The value was 0.

What about the “Plant response rating, Wheat” value [4, 17] of the same molecule?
Its value is 0.

And the “Plant response rating, Cocklebur” value [5, 18]?
Its value is 75.

And the “Cocklebur plant response rating (0 to 100 scale)” value [5, 19]?
Its value is 95.

What about the “Plant response rating, Cocklebur” value [5, 20] of the same molecule?
The value was 100.

What about the “Plant response rating, Cocklebur” value [5, 21] of the same molecule?
Its value is 100.

And the “Plant response rating, Bromegrass, Downy” value [6, 18]?
The value was 0.

And the “Bromegrass, Downy plant response rating (0 to 100 scale)” value [6, 19]?
Its value is 0.

And the “Plant response rating, Bromegrass, Downy” value [6, 20]?
Its value is 5.

And the “Plant response rating, Bromegrass, Downy” value [6, 21]?
The value was 5.

And the “Plant response rating, Foxtail, Giant” value [7, 18]?
Its value is 45.

And the “Foxtail, Giant plant response rating (0 to 100 scale)” value [7, 19]?
The value was 60.

And the “Plant response rating, Foxtail, Giant” value [7, 20]?
Its value is 75.

And the “Plant response rating, Foxtail, Giant” value [7, 21]?
The value was 80.

What about the “Plant response rating, Goosegrass” value [8, 18] of the same molecule?
Its value is 60.

And the “Goosegrass plant response rating (0 to 100 scale)” value [8, 19]?
The value was 70.

What about the “Plant response rating, Goosegrass” value [8, 20] of the same molecule?
Its value is 75.

And the “Plant response rating, Goosegrass” value [8, 21]?
The value was 85.

And the “Plant response rating, Foxtail, Green” value [9, 18]?
Its value is 5.

What about the “Foxtail, Green plant response rating (0 to 100 scale)” value [9, 19] of the same molecule?
Its value is 30.

What about the “Plant response rating, Foxtail, Green” value [9, 20] of the same molecule?
The value was 80.

And the “Plant response rating, Foxtail, Green” value [9, 21]?
The value was 80.

What about the “Plant response rating, Kochia” value [10, 18] of the same molecule?
The value was 70.

What about the “Kochia plant response rating (0 to 100 scale)” value [10, 19] of the same molecule?
Its value is 95.

And the “Plant response rating, Kochia” value [10, 20]?
Its value is 98.

What about the “Plant response rating, Kochia” value [10, 21] of the same molecule?
The value was 100.

And the “Plant response rating, Morningglory” value [11, 18]?
Its value is 75.

And the “Morningglory plant response rating (0 to 100 scale)” value [11, 19]?
Its value is 90.

What about the “Plant response rating, Morningglory” value [11, 20] of the same molecule?
The value was 100.

What about the “Plant response rating, Morningglory” value [11, 21] of the same molecule?
The value was 100.

And the “Plant response rating, Pigweed” value [12, 18]?
Its value is 95.

And the “Pigweed plant response rating (0 to 100 scale)” value [12, 19]?
Its value is 98.

What about the “Plant response rating, Pigweed” value [12, 20] of the same molecule?
Its value is 100.

What about the “Plant response rating, Pigweed” value [12, 21] of the same molecule?
The value was 100.

What about the “Wheat plant response rating (0 to 100 scale)” value [13] of the same molecule?
Its value is 0.

And the “Plant response rating, Wheat” value [13]?
Its value is 0.

— patent US8952024B2, “Herbicidal pyrimidone derivatives” (E I du Pont de Nemours and Company, priority 2009, dated 2015)
